This note sets out measurements from BindingDB's records for doi:10.1186/1472-6769-1-3 (Kimmel Cancer Center, 2001).

pKi: −log10 of the molar value.

Chain of Bis(5'-adenosyl)-triphosphatase (P49789 whole entry): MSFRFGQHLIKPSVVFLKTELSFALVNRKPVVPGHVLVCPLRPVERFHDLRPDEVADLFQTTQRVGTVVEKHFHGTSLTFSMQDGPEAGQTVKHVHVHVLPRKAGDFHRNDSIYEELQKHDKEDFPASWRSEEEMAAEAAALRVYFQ

The test has as its target Bis(5'-adenosyl)-triphosphatase (Homo sapiens, UniProt P49789). Description: Enzyme Inhibition Assay. The text has this: Inhibition assay using Fhit with ApppBODIPY.
In turn, `Nc1ncnc2c1ncn2C1OC(COP(=O)(S)OCCOP(O)(=S)OCC2OC(n3cnc4c(N)ncnc43)C(O)C2O)C(O)C1O` (stereo unspecified) [AppppA analog, 2 (X=S)] showed a pKi of 5.59. `Nc1ncnc2c1ncn2C1OC(COP(=O)(S)OC(C(=O)O)C(OP(O)(=S)OCC2OC(n3cnc4c(N)ncnc43)C(O)C2O)C(=O)O)C(O)C1O` (stereo unspecified) [AppppA analog, 3 (X=S)] showed a pKi of 4.07. As for `Nc1ncnc2c1ncn2C1OC(COP(=O)(S)OCC(O)C(O)COP(O)(=S)OCC2OC(n3cnc4c(N)ncnc43)C(O)C2O)C(O)C1O` (stereo unspecified) [AppppA analog, 4 (X=S)], the figure is 4.07; as for `Nc1ncnc2c1ncn2C1O[C@H](COP(=O)(O)OCP(O)(O)=COP(=O)(O)OCC2O[C@@H](n3cnc4c(N)ncnc43)[C@H](O)[C@@H]2O)[C@@H](O)[C@H]1O` (stereo partly specified) [AppppA analog, 5 (X=O)], 5.82; as for `Nc1ncnc2c1ncn2C1O[C@H](COP(O)(=S)OC=P(O)(O)COP(=O)(S)OCC2O[C@@H](n3cnc4c(N)ncnc43)[C@H](O)[C@@H]2O)[C@@H](O)[C@H]1O` (stereo partly specified) [AppppA analog, 5 (X=S)], 6.66. As for `Nc1ncnc2c1ncn2C1O[C@H](COP(=O)(O)OCC(O)COP(=O)(O)OCC2O[C@@H](n3cnc4c(N)ncnc43)[C@H](O)C2O)[C@@H](O)[C@H]1O` (stereo partly specified) [AppppA analog, 6 (X=O)], the figure is 5.33. `CC(COP(=O)(S)OCC1OC(n2cnc3c(N)ncnc32)C(O)C1O)COP(O)(=S)OCC1OC(n2cnc3c(N)ncnc32)C(O)C1O` (stereo unspecified) [AppppA analog, 7 (X=S)] had a pKi of 4.12. As for `Nc1ncnc2c1ncn2C1OC(COP(=O)(S)OCC(N)COP(O)(=S)OCC2OC(n3cnc4c(N)ncnc43)C(O)C2O)C(O)C1O` (stereo unspecified) [AppppA analog, 8 (X=S)], the figure is 5.52; as for `Nc1ncnc2c1ncn2C1OC(COP(=O)(S)OCCCOP(O)(=S)OCC2OC(n3cnc4c(N)ncnc43)C(O)C2O)C(O)C1O` (stereo unspecified) [AppppA analog, 9 (X=S)], 6.64; as for `Nc1ncnc2c1ncn2C1O[C@H](COP(=O)(S)NCCCNP(O)(=S)OCC2O[C@@H](n3cnc4c(N)ncnc43)[C@H](O)[C@@H]2O)[C@@H](O)[C@H]1O` (stereo partly specified) [AppppA analog, 10 (X=S)], 5.48. As for `Nc1ncnc2c1ncn2C1OC(COP(=O)(S)SCCCSP(O)(=S)OCC2OC(n3cnc4c(N)ncnc43)C(O)C2O)C(O)C1O` (stereo unspecified) [AppppA analog, 11 (X=S)], the figure is 5.28; as for `Nc1ncnc2c1ncn2C1OC(COP(=O)(O)OCC(COP(=O)(O)O)(COP(=O)(O)OCC2O[C@@H](n3cnc4c(N)ncnc43)[C@H](O)[C@@H]2O)COP(=O)(O)OC[C@H]2OC(n3cnc4c(N)ncnc43)[C@H](O)[C@@H]2O)[C@H](O)[C@@H]1O` (stereo partly specified) [AppppA analog, 12 (X=O)], 5.82; as for `Nc1ncnc2c1ncn2C1OC(COP(=O)(O)OCC(COP(=O)(O)OCC2O[C@@H](n3cnc4c(N)ncnc43)[C@H](O)[C@@H]2O)(COP(=O)(O)OCC2O[C@@H](n3cnc4c(N)ncnc43)[C@H](O)[C@@H]2O)COP(=O)(O)OC[C@H]2OC(n3cnc4c(N)ncnc43)[C@H](O)[C@@H]2O)[C@H](O)[C@@H]1O` (stereo partly specified) [AppppA analog, 13 (X=O)], 5.49. As for `Nc1ncnc2c1ncn2C1OC(COP(=O)(S)OCC(COP(=O)(S)OCC2OC(n3cnc4c(N)ncnc43)C(O)C2O)(COP(=O)(S)OCC2OC(n3cnc4c(N)ncnc43)C(O)C2O)COP(O)(=S)OCC2OC(n3cnc4c(N)ncnc43)C(O)C2O)C(O)C1O` (stereo unspecified) [AppppA analog, 13 (X=S)], the figure is 7.19; as for `Nc1ncnc2c1ncn2C1O[C@H](COP(=O)(O)OCC(COP(=O)(O)O)(COP(=O)(O)O)COP(=O)(O)OCC2O[C@@H](n3cnc4c(N)ncnc43)[C@H](O)[C@@H]2O)[C@@H](O)[C@H]1O` (stereo partly specified) [AppppA analog, 14 (X=O)], 6.05.

As for `Nc1ncnc2c1ncn2C1OC(COP(=O)(S)OCC(COP(=O)(O)S)(COP(=O)(O)S)COP(O)(=S)OCC2OC(n3cnc4c(N)ncnc43)C(O)C2O)C(O)C1O` (stereo unspecified) [AppppA analog, 14 (X=S)], the pKi is 6.15. For the compound `Nc1ncnc2c1ncn2C1O[C@H](COP(=O)(O)OCC(COP(=O)(O)OCC2O[C@@H](n3cnc4c(N)ncnc43)[C@H](O)[C@@H]2O)OP(=O)(O)OC[C@H]2OC(n3cnc4c(N)ncnc43)[C@H](O)[C@@H]2O)[C@@H](O)[C@H]1O` (stereo partly specified) [AppppA analog, 15 (X=O)], the pKi is 5.82.

With `Nc1ncnc2c1ncn2C1OC(COP(=O)(S)OCC(COP(O)(=S)OCC2OC(n3cnc4c(N)ncnc43)C(O)C2O)OP(=O)(S)OCC2OC(n3cnc4c(N)ncnc43)C(O)C2O)C(O)C1O` (stereo unspecified) [AppppA analog, 15 (X=S)], the pKi is 7.11. The compound `Nc1ncnc2c1ncn2C1O[C@H](COP(=O)(S)NCC(CNP(O)(=S)OCC2O[C@@H](n3cnc4c(N)ncnc43)[C@H](O)[C@@H]2O)OP(=O)(S)OC[C@H]2OC(n3cnc4c(N)ncnc43)[C@H](O)[C@@H]2O)[C@@H](O)[C@H]1O` (stereo partly specified) [AppppA analog, 16 (X=S)] showed a negative-log Ki (pKi) of 5.57. The value for `Nc1ncnc2c1ncn2C1O[C@H](COP(=O)(O)OCC(COP(=O)(O)OCC2O[C@@H](n3cnc4c(N)ncnc43)[C@H](O)[C@@H]2O)OP(=O)(O)O)[C@@H](O)[C@H]1O` (stereo partly specified) [AppppA analog, 17 (X=O)] was 6.38; that for `Nc1ncnc2c1ncn2C1OC(COP(=O)(S)OCC(COP(O)(=S)OCC2OC(n3cnc4c(N)ncnc43)C(O)C2O)OP(=O)(O)S)C(O)C1O` (stereo unspecified) [AppppA analog, 17 (X=S)] was 6.96.
